Source: patent US7459450B2, “Neuropeptide receptor modulators” (Schering Corporation, priority 2004, dated 2008)

Biological target: T1, Human NPY Y1 receptors (Homo sapiens, UniProt P25929)
T1 construct: expressed in transfected cells; host or cells: CHO cells (membrane protein)
T1 sequence (P25929 1-384): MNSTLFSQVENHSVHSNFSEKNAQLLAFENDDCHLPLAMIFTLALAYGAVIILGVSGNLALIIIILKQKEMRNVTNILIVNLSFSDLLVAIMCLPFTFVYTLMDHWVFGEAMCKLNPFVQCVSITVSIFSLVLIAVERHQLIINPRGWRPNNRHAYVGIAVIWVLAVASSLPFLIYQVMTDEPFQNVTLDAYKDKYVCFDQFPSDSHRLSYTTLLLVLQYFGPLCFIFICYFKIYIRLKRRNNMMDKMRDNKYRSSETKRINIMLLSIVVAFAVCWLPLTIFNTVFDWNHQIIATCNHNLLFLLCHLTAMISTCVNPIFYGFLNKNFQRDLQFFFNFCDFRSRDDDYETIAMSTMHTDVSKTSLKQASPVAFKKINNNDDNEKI
Test: NPY Receptor Binding Assay
Settings: not given

Compound | Ki [µM]
O=C1S/C(=N/c2cccc(CCNc3nc4ccccc4s3)c2)N2CCC[C@@H]12 [Example 408] | > 10
O=C1S/C(=N\c2ccc(CCNc3nc4ccc(F)cc4s3)cc2)N2CCC[C@@H]12 [Example 375] | > 10
O=C1S/C(=N/c2ccccc2CCNc2nc3ccccc3s2)N[C@H]1Cc1ccccc1 [Example 410] | > 10
O=C1S/C(=N\c2ccc(CCNc3nc4ccccc4s3)cc2)N[C@H]1Cc1ccccc1 [Example 394] | > 10
COc1cccc2sc(NCCc3ccc(/N=C4/N[C@@H](Cc5ccccc5)C(=O)S4)cc3)nc12 [Example 401] | > 10
Cc1ccc2nc(NCCc3ccc(/N=C4/N[C@@H](Cc5ccccc5)C(=O)S4)cc3)sc2c1 [Example 350] | > 10
C[C@@H]1N/C(=N/c2ccc(CCNc3nc4ccc(Cl)cc4s3)cc2)SC1=O [Example 386] | > 10
O=C1CN/C(=N/c2ccc(CCNc3nc4ccccc4s3)cc2)S1 [Example 377] | > 10
O=C(O)C[C@@H]1N/C(=N/c2ccc(CCNc3nc4ccccc4s3)cc2)SC1=O [Example 399] | > 10
CC(C)[C@@H]1N/C(=N/c2ccc(CCNc3nc4ccc(Cl)cc4s3)cc2)SC1=O [Example 384] | > 10

Results, then the compound that gave them:

Ki [µM] | Compound
> 10 | CC(C)[C@@H]1N/C(=N/c2ccc(CCNc3nc4ccccc4s3)cc2)SC1=O [Example 397]
> 10 | CSCC[C@@H]1N/C(=N/c2ccc(CCNc3nc4ccc(S(C)(=O)=O)cc4s3)cc2)SC1=O [Example 388]
> 10 | CC(C)[C@@H]1N/C(=N/c2ccc(CCNc3nc4ccc([N+](=O)[O-])cc4s3)cc2)SC1=O [Example 356]
> 10 | O=C1S/C(=N\c2ccc(CCNc3nc4ccccc4s3)cc2)N2CCC[C@@H]12 [Example 398]
> 10 | C[C@@H]1N/C(=N/c2ccc(CCNc3nc4ccc(S(C)(=O)=O)cc4s3)cc2)SC1=O [Example 354]
> 10 | CSCC[C@@H]1N/C(=N/c2ccc(CCNc3nc4cc(Cl)c(Cl)cc4s3)cc2)SC1=O [Example 361]
> 10 | CSCC[C@@H]1N/C(=N/c2ccc(CCNc3nc4ccc([N+](=O)[O-])cc4s3)cc2)SC1=O [Example 414]
> 10 | O=C1S/C(=N\c2ccc(CCNc3nc4ccc(F)cc4s3)cc2)N[C@H]1Cc1ccccc1 [Example 373]
> 10 | CC(C)C1NC(=Nc2ccccc2CCNc2nc3ccccc3s2)SC1=O (centres unmarked) [Example 404]
> 10 | CS(=O)(=O)c1ccc2nc(NCCc3ccc(/N=C4/N[C@@H](Cc5ccccc5)C(=O)S4)cc3)sc2c1 [Example 387]
> 10 | Cc1cccc2sc(NCCc3ccc(/N=C4/N[C@@H](Cc5ccccc5)C(=O)S4)cc3)nc12 [Example 369]
> 10 | CC(C)C[C@@H]1N/C(=N/c2ccc(CCNc3nc4cc(Cl)c(Cl)cc4s3)cc2)SC1=O [Example 362]
> 10 | CC(C)C[C@@H]1N/C(=N/c2ccc(CCNc3nc4ccc(S(C)(=O)=O)cc4s3)cc2)SC1=O [Example 389]
> 10 | CC(C)[C@@H]1N/C(=N/c2ccc(CCNc3nc4ccc(F)cc4s3)cc2)SC1=O [Example 374]
> 10 | O=C1SC(=Nc2ccc(CCNc3nc4ccc(Cl)cc4s3)cc2)N2CCCC12 (centres unmarked) [Example 385]

Same assay, conditions: Procedure B compounds, rated A/B/C

Ki [µM] | Compound
> 10 | O=C(c1ccccc1)N1CC(c2ccccc2)N=C1Nc1ccc(CCNc2nc3ccccc3s2)cc1 (centres unmarked) [Example 30]
> 10 | CC1N=C(Nc2ccc(CCNc3nc4ccccc4s3)cc2)N(C(=O)c2ccccc2)C1c1ccccc1 (centres unmarked) [Example 31]

Same assay, conditions: Procedure C compounds, rated A/B/C

Ki [µM] | Compound
> 10 | CCOC(=O)N1C(=O)[C@H](CC(=O)O)N=C1Nc1ccc(CCNc2nc3ccccc3s2)cc1 [Example 38]
> 10 | CCOC(=O)N1C(=O)[C@H]([C@@H](C)CC)N=C1Nc1ccc(CCNc2nc3ccccc3s2)cc1 [Example 41]
> 10 | CCOC(=O)N1C(=O)CN=C1Nc1ccc(CCNc2nc3ccccc3s2)cc1 [Example 36]
> 10 | O=C(c1ccccc1)N1C(=O)[C@H](CC2CCCCC2)N=C1Nc1ccc(CCNc2nc3ccccc3s2)cc1 [Example 50]

Same assay, conditions: Procedure D compound, rated A/B/C

Ki [µM] | Compound
1 to 10 | COC1CN=C(Nc2ccc(CCNc3nc4ccccc4s3)cc2)S1 (centres unmarked) [compound 61]

Same assay, conditions: Procedure E compounds, rated A/B/C

Compound | Ki [µM]
COc1ccc2nc(NCCc3ccc(/N=C4/N[C@@H](C(C)C)CS4)cc3)sc2c1 [Example 216] | 1 to 10
CC[C@@H]1CS/C(=N\c2ccc(CCNc3nc4ccccc4s3)cc2)N1 [Example 269] | < 1
CC(C)C[C@@H]1CS/C(=N\c2ccc(CCNc3nc4ccc(S(C)(=O)=O)cc4s3)cc2)N1 [Example 245] | 1 to 10
COc1ccc2nc(NCCc3ccc(/N=C4/N[C@@H](c5ccccc5)CS4)cc3)sc2c1 [Example 217] | > 10
Fc1ccc2nc(NCCc3ccc(/N=C4/N[C@H]5c6ccccc6CC5S4)cc3)sc2c1 (some centres unmarked) [Example 328] | < 1
CC1CCSC(Nc2ccc(CCNc3nc4ccccc4s3)cc2)=N1 (centres unmarked) [Example 200] | < 1
CC1(C)CS/C(=N\c2ccc(CCNc3nc4ccc(Cl)cc4s3)cc2)N1 [Example 240] | 1 to 10
COc1cccc2sc(NCCc3ccc(/N=C4\SC5Cc6ccccc6[C@@H]5N4C4CC4)cc3)nc12 (some centres unmarked) [Example 229] | > 10
COc1ccc2nc(NCCc3ccc(/N=C4\SC[C@@H]5CCCN45)cc3)sc2c1 [Example 83] | > 10
CC1CN/C(=N/c2ccc(CCNc3nc4ccc(S(C)(=O)=O)cc4s3)cc2)S1 (centres unmarked) [Example 189] | > 10
CC[C@@H]1CS/C(=N\c2ccc(CCNc3nc4ccc(C)cc4s3)cc2)N1 [Example 96] | < 1
CS(=O)(=O)c1ccc2nc(NCCc3ccc(/N=C4/NC5(CCCC5)CS4)cc3)sc2c1 [Example 117] | 1 to 10
CC[C@@H]1CS/C(=N\c2ccc(CCNc3nc4ccc(S(C)(=O)=O)cc4s3)cc2)N1 [Example 115] | 1 to 10
c1ccc2sc(NCCc3ccc(NC4=NC(C5CCCCC5)CCS4)cc3)nc2c1 (centres unmarked) [Example 201] | < 1
CC1CN/C(=N\c2cccc(CCNc3nc4ccccc4s3)c2)S1 (centres unmarked) [Example 187] | > 10

The remaining lines, values ahead:

Ki [µM] | Compound
> 10 | CC1(C)CS/C(=N/c2cccc(CCNc3nc4ccccc4s3)c2)N1 [Example 321]
> 10 | Cc1ccc2nc(NCCc3ccc(/N=C4\SCCN4C)cc3)sc2c1 [Example 86]
> 10 | COc1cccc2sc(NCCc3ccc(/N=C4\SCCN4C)cc3)nc12 [Example 230]
> 10 | Cc1cccc2sc(NCCc3ccc(/N=C4/NCC(C)S4)cc3)nc12 (centres unmarked) [Example 327]
1 to 10 | Cc1ccc2nc(NCCc3ccc(/N=C4/N[C@@H](C(C)C)CS4)cc3)sc2c1 [Example 93]
> 10 | COc1cccc2sc(NCCc3ccc(/N=C4/NC(c5ccccc5)CCS4)cc3)nc12 (centres unmarked) [Example 206]
< 1 | CC1(C)CS/C(=N\c2ccc(CCNc3nc4ccccc4s3)cc2)N1 [Example 272]
> 10 | CC1CN/C(=N/c2ccc(CCNc3nc4ccccc4s3)cc2)S1 (centres unmarked) [Example 193]
> 10 | COc1ccc2nc(NCCc3ccc(/N=C4/NCC(C)S4)cc3)sc2c1 (centres unmarked) [Example 322]
1 to 10 | CC1(C)CS/C(=N\c2ccc(CCNc3nc4ccc(S(C)(=O)=O)cc4s3)cc2)N1 [Example 118]
1 to 10 | CC[C@@H]1CS/C(=N\c2ccc(CCNc3nc4ccc(OC)cc4s3)cc2)N1 [Example 219]
> 10 | c1ccc(C2CN/C(=N\c3cccc(CCNc4nc5ccccc5s4)c3)S2)cc1 (centres unmarked) [Example 186]
< 1 | Clc1ccc2nc(NCCc3ccc(/N=C4/NC(c5ccccc5)CCS4)cc3)sc2c1 (centres unmarked) [Example 212]
< 1 | Fc1ccc2nc(NCCc3ccc(/N=C4/NC(c5ccccc5)CCS4)cc3)sc2c1 (centres unmarked) [Example 210]
< 1 | CCCCC1CS/C(=N\c2ccc(CCNc3nc4ccc(OC)cc4s3)cc2)N1 (centres unmarked) [Example 215]
> 10 | COc1ccc2nc(NCCc3ccc(/N=C4\SCCN4C)cc3)sc2c1 [Example 80]
> 10 | CN1CCS/C1=N/c1cccc(CCNc2nc3ccccc3s2)c1 [Example 182]
< 1 | CC(C)CC1CCSC(Nc2ccc(CCNc3nc4ccccc4s3)cc2)=N1 (centres unmarked) [Example 338]
1 to 10 | CS(=O)(=O)c1ccc2nc(NCCc3ccc(/N=C4/N[C@@H](Cc5c[nH]cn5)CS4)cc3)sc2c1 [Example 116]
1 to 10 | COc1ccc2nc(NCCc3ccc(/N=C4/NC(C)(C)CS4)cc3)sc2c1 [Example 221]

Same assay, conditions: Procedure G compounds, rated A/B/C

Ki [µM] | Compound
> 10 | Cc1nc(Nc2ccc(CCNc3nc4ccccc4s3)cc2)sc1C(=O)N(C)C [Example 437]
> 10 | CCOC(=O)c1sc(Nc2ccc(CCNc3nc4ccccc4s3)cc2)nc1C(F)(F)F [Example 432]
> 10 | CNC(=O)c1sc(Nc2ccc(CCNc3nc4ccccc4s3)cc2)nc1C [Example 418]

Same assay, conditions: Procedure H compounds, rated A/B/C

Ki [µM] | Compound
> 10 | O=C1N=C(Nc2ccc(CCNc3nc4ccccc4s3)cc2)SC1c1ccccc1 (centres unmarked) [Example 444]

Same assay, conditions: Table 1, rated A/B/C

Ki [µM] | Compound
< 1 | c1ccc2sc(NCCc3ccc(NC4=NC(C5CCCCC5)CCS4)cc3)nc2c1 (centres unmarked) [Example 9]
1 to 10 | c1ccc([C@H]2CSC(Nc3ccc(CCNc4nc5ccccc5s4)cc3)=N2)cc1 [Example 8]
< 1 | c1ccc([C@@H]2CSC(Nc3ccc(CCNc4nc5ccccc5s4)cc3)=N2)cc1 [Example 7]
